For data set [1], the target named is T1, MGMT (Homo sapiens, UniProt P16455).
T1 sequence (P16455 1-207): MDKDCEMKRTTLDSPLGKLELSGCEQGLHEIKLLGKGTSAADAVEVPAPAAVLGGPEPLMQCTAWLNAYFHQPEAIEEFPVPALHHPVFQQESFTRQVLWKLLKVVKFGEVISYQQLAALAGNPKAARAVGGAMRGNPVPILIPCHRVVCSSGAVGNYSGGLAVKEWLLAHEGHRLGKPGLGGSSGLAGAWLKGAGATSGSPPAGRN
Briefly: enzyme inhibitory activity against MGMT using fluorescent labeled oligonucleotide substrates. In kind it is biochemical. The settings on record: FIG. 1. The source says: The introduction position of the [^11C] methyl group of the benzene ring present in the above-mentioned O^6-benzylguanine (1) was investigated. […] Erickson, K. D. Miller, B. H. Mock, B. E. Glick-Wilsob, W. L. Winkel, K. L. Stone, K. A. Carlson, Synth. Commun. 2003, 33, 941-952.

Data set [2] is described as follows: Pharmacokinetics test using rats (brain permeability, blood and brain tissue by HPLC). In kind it is in vivo, Sprague-Dawley rats. The settings on record: rat; for concentration at 30 min / Kp at 0.5 h / Kp at 30 min / concentration at 32 min / concentration at 44 min / Kp: Sprague-Dawley, iv; for concentration at 30 min / Kp at 0.5 h / Kp at 30 min / Brain/Plasma ratio / Conc. HPLC (concentration of compound in brain homogenate) / Conc. brain / concentration at 32 min / concentration at 44 min / Kp: 10 mg/kg; for Kp at 30 min / concentration of the compound in the brain based on the total dose: 30 minutes after administration; for Kp at 30 min: read-out: ratio of brain concentration to the concentration in the plasma; for Brain/Plasma ratio / Conc. HPLC (concentration of compound in brain homogenate) / Conc. brain: listed as mMeBG (2); for metabolism after intravenous administration (plasma concentration of compound and metabolites over time): i.v., FIGS. 7 to 9; for Kp: plasma 30 min. The procedure:
Regarding O^6-(3-methylbenzyl) guanine (2) and O^6-(4-methylbenzyl) guanine (3) not labeled with ^11C synthesized by the above method (that is, cold), brain permeability was evaluated by the following method.
After intravenous administration (10 mg/kg) of O^6-(3-methylbenzyl) guanine (2) or O^6-(4-methylbenzyl) guanine (3) to Sprague-Dawley rats, blood and brain tissues were collected after a predetermined time, and analyzed by HPLC.

The nature of data set [3]: stability in the plasma. It is filed as in vitro ADME.
Where [4] appears, read: i.v. 10 mg/kg, 30 min, under anaesthesia, fasting, individual animals.
The mark [5] stands for this setting: i.v. 10 mg/kg, 30 min, under anaesthesia, nonfasting, individual animals.
[6] abbreviates: i.v. 10 mg/kg, 30 min, under nonanaesthesia, fasting, individual animals.
Setting [7] is: brain homogenate, i.v. 10 mg/kg, under anaesthesia, fasting, read-out: Conc. HPLC (concentration of compound in brain homogenate).
Setting [8] is: brain, i.v. 10 mg/kg, under anaesthesia, fasting, read-out: Conc. brain.

Where “and” joins values, the source holds several entries; their conditions need not be identical. Equal values may be shown once. Entries after “also recorded” stand apart in the source; their conditions may differ. Read-outs that look alike come from different tables or passages of the source.

For `Cc1cccc(COc2nc(N)nc3nc[nH]c23)c1` [Compound 2, O^6-(3-methylbenzyl) guanine], the “MGMT inhibitory effect compared with O^6-benzylguanine (1)” value in data set [1] is reported as “MGMT inhibitory effect similar to O^6-benzylguanine (1); also recorded: slightly higher inhibitory activity than O^6-BG (1)”. Besides, the concentration at 30 min in data set [2] (brain homogenate, i.v. 10 mg/kg, 30 min, under anaesthesia, fasting, average, read-out: Conc. HPLC (brain homogenate), Ave.) worked out at 513 ng/mL; in data set [2] (brain homogenate, i.v. 10 mg/kg, 30 min, under anaesthesia, fasting, individual animals, read-out: Conc. HPLC (concentration of compound in brain homogenate)) it was 568 ng/mL; in data set [2] (brain homogenate, i.v. 10 mg/kg, 30 min, under anaesthesia, nonfasting, average, read-out: Conc. HPLC (brain homogenate), Ave.) it was 663 ng/mL; in data set [2] (brain homogenate, i.v. 10 mg/kg, 30 min, under anaesthesia, nonfasting, individual animals, read-out: Conc. HPLC (concentration of compound in brain homogenate)) it was 784 ng/mL; in data set [2] (brain homogenate, i.v. 10 mg/kg, 30 min, under nonanaesthesia, fasting, average, read-out: Conc. HPLC (brain homogenate), Ave.) it was 523 ng/mL; in data set [2] (brain homogenate, i.v. 10 mg/kg, 30 min, under nonanaesthesia, fasting, individual animals, read-out: Conc. HPLC (concentration of compound in brain homogenate)) it was 536 ng/mL. Also, the concentration at 30 min in data set [2] (brain, i.v. 10 mg/kg, 30 min, under anaesthesia, fasting, average, read-out: Conc. brain, Ave.) came out at 1350 ng/mL; in data set [2] (brain, i.v. 10 mg/kg, 30 min, under anaesthesia, fasting, individual animals, read-out: Conc. brain) it was 1500 ng/mL; in data set [2] (brain, i.v. 10 mg/kg, 30 min, under anaesthesia, nonfasting, average, read-out: Conc. brain, Ave.), 1660 ng/mL; in data set [2] (brain, i.v. 10 mg/kg, 30 min, under anaesthesia, nonfasting, individual animals, read-out: Conc. brain), 1890 ng/mL; in data set [2] (brain, i.v. 10 mg/kg, 30 min, under nonanaesthesia, fasting, average, read-out: Conc. brain, Ave.), 1380 ng/mL; in data set [2] (brain, i.v. 10 mg/kg, 30 min, under nonanaesthesia, fasting, individual animals, read-out: Conc. brain) it was 1400 ng/mL. In addition, the concentration at 30 min in data set [2] (plasma, average (n = 3), 30 min after i.v. 10 mg/kg of 2, rat under nonanaesthesia and fasting, other rats than brain sample, read-out: Conc. Plasma) came out at 5190 ng/mL; in data set [2] (plasma, average (n = 5), 30 min after i.v. 10 mg/kg of 2, rat under anaesthesia and fasting, other rats than brain sample, read-out: Conc. Plasma), 4450 ng/mL. The Kp at 0.5 h in data set [2] (brain, i.v. 10 mg/kg, 30 min, under anaesthesia, fasting, average, read-out: Brain/Plasma ratio, Ave.) turned out to be 0.303; in data set [2] (brain, i.v. 10 mg/kg, 30 min, under anaesthesia, fasting, individual animals, read-out: Brain/Plasma ratio), 0.336; in data set [2] (brain, i.v. 10 mg/kg, 30 min, under anaesthesia, nonfasting (plasma value from anaesthesia, fasting rats), average, read-out: Brain/Plasma ratio, Ave.), 0.373; in data set [2] (brain, i.v. 10 mg/kg, 30 min, under anaesthesia, nonfasting (plasma value from anaesthesia, fasting rats), individual animals, read-out: Brain/Plasma ratio), 0.425; in data set [2] (brain, i.v. 10 mg/kg, 30 min, under nonanaesthesia, fasting, average, read-out: Brain/Plasma ratio, Ave.) it was 0.265; in data set [2] (brain, i.v. 10 mg/kg, 30 min, under nonanaesthesia, fasting, individual animals, read-out: Brain/Plasma ratio), 0.27. Also, the Kp at 30 min in data set [2] (brain, i.v. 10 mg/kg) is 0.3. Besides, in data set [2] (i.v. 10 mg/kg), the “accumulation in the brain” value is “accumulated in the brain”. Also, the Brain/Plasma ratio in data set [2] (setting [4]) is 0.275 and 0.298; in data set [2] (i.v. 10 mg/kg, 30 min, under anaesthesia, nonfasting (plasma value from anaesthesia, fasting rats), individual animals) it was 0.398 and 0.296; in data set [2] (setting [6]), 0.315 and 0.255 and 0.249 and 0.229 and 0.277. Further, the “Conc. HPLC (concentration of compound in brain homogenate)” value was 464 ng/mL and 507 ng/mL in data set [2] (setting [4]); 684 ng/mL and 522 ng/mL in data set [2] (setting [5]); 635 ng/mL and 474 ng/mL and 481 ng/mL and 454 ng/mL and 555 ng/mL in data set [2] (setting [6]). Further, the Conc. brain is 1223 ng/mL and 1325 ng/mL in data set [2] (setting [4]); 1772 ng/mL and 1318 ng/mL in data set [2] (setting [5]); 1634 ng/mL and 1323 ng/mL and 1291 ng/mL and 1188 ng/mL and 1436 ng/mL in data set [2] (setting [6]). Further, the “concentration of the compound in the brain based on the total dose” value in data set [2] (i.v. 10 mg/kg) was 0.1%. Moreover, the “metabolism after intravenous administration (plasma concentration of compound and metabolites over time)” value in data set [2] is “more stable than the compound (3) and was present for a long time”. The “stability in the plasma” value in data set [3] was “stably exist in the plasma”.

In the case of `Cc1ccc(COc2nc(N)nc3nc[nH]c23)cc1` [Compound 3, O^6-(4-methylbenzyl) guanine], the “MGMT inhibitory effect compared with O^6-benzylguanine (1)” value in data set [1] is reported as “MGMT inhibitory effect similar to O^6-benzylguanine (1); also recorded: slightly higher inhibitory activity than O^6-BG (1)”. In data set [2] (setting [7]), the concentration at 32 min came to 231 ng/mL and the concentration at 44 min worked out at 118 ng/mL. For the same compound, the Kp at 30 min in data set [2] (brain, i.v. 10 mg/kg) turned out to be 0.3. Besides, in data set [2] (setting [8]), the concentration at 32 min stood at 959 ng/mL and the concentration at 44 min amounted to 470 ng/mL. Further, the Kp in data set [2] (brain, i.v. 10 mg/kg, brain 32 min, under anaesthesia, fasting, read-out: Brain/Plasma ratio) was found to be 0.386. In addition, the Kp in data set [2] (brain, i.v. 10 mg/kg, brain 44 min, under anaesthesia, fasting, read-out: Brain/Plasma ratio) stood at 0.189. Further, the concentration at 30 min in data set [2] (plasma, average (n = 3), 30 min after i.v. 10 mg/kg of 3, rat under anaesthesia and fasting, other rats than brain sample, read-out: Conc. Plasma) was 2480 ng/mL. In addition, in data set [2] (i.v. 10 mg/kg), the “accumulation in the brain” value was “accumulated in the brain” and the “concentration of the compound in the brain based on the total dose” value came to 0.1%. In data set [2], the “metabolism after intravenous administration (plasma concentration of compound and metabolites over time)” value is given as “quickly metabolized to unknown, more polar compounds within 240 minutes”. Also, the “stability in the plasma” value in data set [3] is “stably exist in the plasma”.

Values taken from patent US10981913B2, “11C -labeled 06 -benzylguanine, pet probe capable of visualizing 06-methyl guanine methyl-transferase activity, and production method of the same” (NATIONAL CENTER FOR GERIATRICS AND GERONTOLOGY, priority 2016, dated 2021).
